Earlier results as cited in patent US20090270438A1, “Novel compositions and formulations” (priority 2006, published 2009).

Conditions: Pharmaceutical Codex

In the case of `COC12CCC3(CC1C(C)(O)C(C)(C)C)C1Cc4ccc(O)c5c4C3(CCN1CC1CC1)C2O5` (stereo not shown) [buprenorphine, Buprenorphine], the pKa is listed as 8.5.
